Experimental data as given in patent US5719174A, “Indenoindole compounds for use in organ preservation” (priority 1993, dated 1998).
“Also recorded” adds a separate entry of the source.

Key:
lipid peroxidation = experiment: Ascorbate/Fe^2+ -dependent lipid peroxidation; assay type: biochemical; details: ascorbate/Fe^2+ model, in vitro
Text: The indenoindole compounds are efficient as flee-radical scavengers or antioxidants. An assay system measuring the concentration of the compounds of formulas I and II required to inhibit lipid peroxidation by 50% (IC50) was used. The assay system, ascorbate/Fe^2+ -dependent lipid peroxidation, was the same system used in EP-A 409 410 and detailed information about the system is given in said patent specification.

[1] = system: lipid peroxidation in renal tissue; experiment: Ex vivo hypoxia and reoxygenation of renal tissue after oral administration to mice; assay type: in vivo, mouse; details: for time after administration up till which lipid peroxidation was abolished: oral dose of 50 mg/kg; for inhibition of lipid peroxidation in renal tissue subjected to ex vivo hypoxia and reoxygenation: oral dose of 50 mg/kg (dose for compounds I and II)
[2] = system: oxidation of lipoproteins in human plasma (mouse peritoneal macrophages); experiment: Oxidation of lipoproteins in human plasma in the presence of mouse peritoneal macrophages; assay type: cell-based, human plasma; mouse cells
rat bone marrow = experiment: Ischemic and reperfusion damage to rat bone marrow; details: additive to organ preservation solutions
rat liver = experiment: Ischemic and reperfusion damage to rat liver; details: additive to organ preservation solutions
[3] = system: oxidation of lipoproteins in human plasma (rabbit smooth muscle cells); experiment: Oxidation of lipoproteins in human plasma in the presence of rabbit smooth muscle cells; assay type: cell-based
[4] = system: lipid peroxidation in renal tissue; experiment: In vitro hypoxia and reoxygenation of kidney tissue (TBARS formation); assay type: cell-based; details: pH 7.4; rat kidney slices, 37° C., pH 7.40, 40 min hypoxia (argon), 30 min reoxygenation; read-out: pIC50, -log of the concentration needed to reduce TBARS formation by 50% of the corresponding vehicle value (converted)
Description: Lipid peroxidation was also tested in renal tissue. Samples were obtained from anesthetized rats, cut into 2 mm slices and put into 50 ml Erlenmeyer flasks containing 40 mmol 1^-1 Hepes buffer (pH 7.40) 37° C. (10-100 mg tissue per 4 ml buffer). The tissue was made hypoxic for 20 min by bubbling a fine stream of argon gas through the buffer. After that an antioxidant or the corresponding vehicle was added to the buffer and the tissue was kept under argon for an additional period of 20 min. The sample was then reoxygenated by vigourous bubbling of the buffer with 95.5% O2 :CO2. After 30 min reoxygenation the iron chelator deferoxamine mesylate (Ciba Geigy AG, Basel, Switzerland) was added (final concentration 45 μmol 1^-1). The sample was homogenized on ice, quickly frozen in dry-ice and alcohol and stored at -70° C. After thawing the formation of 2-thiobarbituric acid-reactive material (TBARS) was determined (Svensson et al Scand J Clin Invest 1993:53). The potencies of the antioxidants (pIC50 i.e. -log of the concentration (antioxidant) needed to reduce TBARS formation by 50% of the corresponding vehicle value) was for compound I: 6.8 and for compound II: 6.8.

[5] = system: isolated heart cells (myocytes); experiment: Inhibition of reoxygenation damage in isolated heart cells (LD-leakage); assay type: cell-based, rat; details: for prevention of ischemic and reperfusion damage to isolated rat heart cells: additive to organ preservation solutions
Description: Hearts were collected from 2 and 6 days old rats and the ventricles were dissected free, placed in Hanks balanced salt solution without Ca^2+ and Mg^2+ but with 0.35 g/l sodium-carbonate and cut in small pieces. The cells were dispersed in the same solution but supplemented with collagenase solution (type 1, 0.8 mg/ml) at 37° C. for 10 minutes and centrifuged, 160 xg for 5 minutes. Subsequently, 5 serial 20 minutes digestions were performed. The cells from the initial digestion were discarded. Centrifugation was made after each 20 minutes period and the collage nase solution was changed to Ham's F 10 culture medium, supplemented with 10% fetal bovine serum (FBS), glutamine 2 mM, penicillin 50 IU/ml and streptomycin 50 μg/ml. A modified method to enrich the isolation of myocytes, were used, including replaiting the cells twice for 30 and 90 min, respectively. The myocytes were plated on 35 mm plastic culture dishes at a density of approximately 9×10^5 cells/ml (1.8×10^6 cells/dish). The cells were kept in culture for 6 days at 37° C. and 5% CO2 under aerobic conditions in a Forma Scientific carbon dioxide incubator, 5% CO2. During this period the cells reached confluence and were beating spontaneously at an approximate frequency of 20-40 beats/min. Each culture dish contained 0.9±0.2 mg protein. The supplemented F10-medium was changed each day. The antioxidant compound II was added to the culture medium in ethanol, reaching a final concentration of 0.1% ethanol. The final concentration of compound II in the culture medium was 0.01, 0.1, 1.0 or 5.0 μmol/l. Before starting the experiment the medium above the myocytes were removed and changed to fresh F10-medium supplemented with glutamine, which was made hypoxic by argon bubbling for 1 hour before addition to the cells. The culture plates were transferred to specially designed air tight thermostated chambers. The experiment lasted for 300 min including 60 min hypoxia, when nitrogen (95% N2, 5% CO2) was slowly gassed above the cells, followed by 240 min reoxygenation (95% O2, 5% CO2). Cell viability was determined by leakage of LD into the medium, and was analyzed after various times 1, 30, 60, 90, 120, 180, 240 and 300 min.

[6] = system: isolated perfused rat heart; experiment: Postischemic recovery of the isolated perfused (Langendorff) heart after six hours cold ischemia; details: for prevention of ischemic and reperfusion damage to isolated perfused rat heart: additive to organ preservation solutions
Description: Experiments were designed to investigate the effect on the myocardial recovery after six hours cold ischemia when an antioxidative agent compound II, was added to a crystalloid cardioplegic solution, such as Plegisol (Abbott). The retrogradely perfused (Langendorff) isolated rat heart with an intra-ventricular balloon was used. The hearts were single flushed perfused (10 ml, 4° C.) with either plain Plegisol or Plegisol supplemented with 1 μmol/l of compound II. The hearts were then stored for 6 hours in the respective solution at 4° C. In a third group hearts were single flush perfused with Plegisol without storage of the hems.

rat kidney = experiment: Ischemic and reperfusion damage to rat kidney; details: additive to organ preservation solutions

pIC50, inhibition of ascorbate/Fe^2+ -dependent lipid peroxidation (lipid peroxidation)	IC50 [4] [µM]	SMILES	time after administration up till which lipid peroxidation was abolished [1] [h]	inhibition of lipid peroxidation in renal tissue subjected to ex vivo hypoxia and reoxygenation [1]	prevention of oxidation of lipoproteins in human plasma [2]	prevention of ischemic and reperfusion damage to rat bone marrow (rat bone marrow)	prevention of ischemic and reperfusion damage to rat liver (rat liver)	prevention of oxidation of lipoproteins in human plasma [3]	inhibition at 1 µM ([5]; Rattus norvegicus, 1 μmol/l, 60 min hypoxia, 240 min reoxygenation, read-out: reduction of the damage (LD-leakage)) [%]	IC50 ([5]; Rattus norvegicus, 60 min hypoxia, 240 min reoxygenation, read-out: calculated pIC50 (-logIC50), LD-leakage (converted)) [µM]	prevention of ischemic and reperfusion damage to isolated rat heart cells [5]	postischemic LVDP compared to plain Plegisol, in words ([6]; Plegisol with 1 μmol/l, 6 hours at 4° C.)	postischemic left ventricular developed pressure (LVDP) ([6]; Plegisol with 1 μmol/l, 6 hours at 4° C., mean±SEM, plain Plegisol 57±11%, without storage 89±1%)	prevention of ischemic and reperfusion damage to isolated perfused rat heart [6]	prevention of ischemic and reperfusion damage to rat kidney (rat kidney)	time after administration up to which inhibitory effect on lipid peroxidation could be detected ([1]; dose not separately printed for compound III)
5.0	–	Cc1c(C)c2c(c(C)c1O)CCC(C)(CCCC(C)CCCC(C)CCCC(C)C)O2 (stereo not drawn) [α-Tocopherol, reference compound]	–	–	–	–	–	–	–	–	–	–	–	–	–	–
8.2	0.158	COc1cc(C)c2c(c1)C1c3ccccc3CC1N2 (stereo not drawn) [Compound II, 9-Methoxy-7-methyl-iso-THII]	≤ 6	abolished lipid peroxidation in renal tissue	prevent efficiently oxidation of lipoproteins	prevent ischemic and reperfusion damage	prevent ischemic and reperfusion damage	prevent efficiently oxidation of lipoproteins	90	0.0316	prevent ischemic and reperfusion damage	significantly improved; also recorded: drastically improves the functional recovery of rat hearts	90±9 % of preischemic value	prevent ischemic and reperfusion damage	prevent ischemic and reperfusion damage	–
7.4	–	Cc1cc(C)c2c(c1)C1(C)Cc3ccccc3C1(C)N2 (stereo not drawn) [Compound III, 4b,6,8,9b-Tetramethyl-THll, reference compound]	–	only weak inhibitory effect on lipid peroxidation	–	–	–	–	–	–	–	–	–	–	–	up to 30 min
8.0	0.158	COc1cc(C)c2c(c1)C1Cc3ccccc3C1N2 (stereo not drawn) [Compound I, 8-Methoxy-6-methyl-THII]	≤ 6	abolished lipid peroxidation in renal tissue	prevent efficiently oxidation of lipoproteins	prevent ischemic and reperfusion damage	prevent ischemic and reperfusion damage	prevent efficiently oxidation of lipoproteins	–	–	prevent ischemic and reperfusion damage	–	–	prevent ischemic and reperfusion damage	prevent ischemic and reperfusion damage	–
